The record followed here is patent publication US9981942B2, “Piperidine derivatives having multimodal activity against pain” (LABORATORIOS DEL DR. ESTEVE S.A., priority 2013, dated 2018).

SMILES strings stand for the structures.

In the test the test system is σ1 receptor and the μ-opiod receptor. In words: μ and σ1 dual binding: combined class from the Ki of both radioligand assays. Also noted: species or system human; key to μ and σ1 dual binding: +: Both Ki-μ and Ki-σ1>=500 nM; ++: One Ki<500 nM while the other Ki is >=500 nM; +++: Both Ki-μ and Ki-σ1<500 nM; ++++: Both Ki-μ and Ki-σ1<100 nM. The following applies: transfected HEK-293 membranes (σ1), transfected CHO-K1 cell membranes (μ); for μ and σ1 dual binding: combined class for Ki-μ and Ki-σ1. The essentials:
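Classes combine both Ki values, split at 500 nM and 100 nM. Human μ-opioid binding used 1 nM [3H]-DAMGO on CHO-K1 membranes (27 °C, 60 min, pH 7.4, naloxone 10 μM for NSB); human σ1 used 5 nM [3H](+)-pentazocine on HEK-293 membranes (37 °C, 120 min, pH 8, haloperidol 10 μM for NSB).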

Consider `CC(C)S(=O)(=O)Nc1cccc([C@@H]2CCN(Cc3cn(Cc4ccccn4)nn3)C[C@@H]2O)c1` [Example 125, N-(3-((3R,4S)-3-hydroxy-1-((1-(pyridin-2-ylmethyl)-1H-1,2,3-triazol-4-yl)methyl)piperidin-4-yl)phenyl)propane-2-sulfonamide], for which the “μ and σ1 dual binding” value is on record as “++”.

`CC(C)S(=O)(=O)Nc1cccc(C2CCN(Cc3cn(Cc4cc(N=[N+]=[N-])ccn4)nn3)CC2)c1` [Example 128]: the “μ and σ1 dual binding” value is recorded as “++”.

Turning to `CC(C)S(=O)(=O)Nc1cccc(C2CCN(Cc3cn(Cc4cnc(C(F)(F)F)nc4)nn3)CC2)c1` [Example 129, N-(3-(1-((1-((2-(trifluoromethyl)pyrimidin-5-yl)methyl)-1H-1,2,3-triazol-4-yl)methyl)piperidin-4-yl)phenyl)propane-2-sulfonamide], the “μ and σ1 dual binding” value was “++”.

As to `CC(C)S(=O)(=O)Nc1cccc(C2CCN(Cc3cn(C(CO)c4ccccc4)nn3)CC2)c1` (stereo not shown) [Example 130, N-(3-(1-((1-(2-hydroxy-1-phenylethyl)-1H-1,2,3-triazol-4-yl)methyl)piperidin-4-yl)phenyl)propane-2-sulfonamide], the “μ and σ1 dual binding” value is reported as “++”. With `CS(=O)(=O)Nc1cccc(C2CCN(Cc3cn(C(CO)c4ccccc4)nn3)CC2)c1` (stereo not shown) [Example 131, N-(3-(1-((1-(2-hydroxy-1-phenylethyl)-1H-1,2,3-triazol-4-yl)methyl)piperidin-4-yl)phenyl)methanesulfonamide], the “μ and σ1 dual binding” value is “++”.

With `Oc1cccc(C2CCN(Cc3cn(Cc4cccc(F)n4)nn3)CC2)c1` [Example 132, 3-(1-((1-((6-fluoropyridin-2-yl)methyl)-1H-1,2,3-triazol-4-yl)methyl)piperidin-4-yl)phenol], the Ki range for both μ and σ1 (dual-binding class) is under 500 nM. On to `Oc1cccc(C2CCN(Cc3cn(Cc4ccc(F)cn4)nn3)CC2)c1` [Example 133, 3-(1-((1-((5-fluoropyridin-2-yl)methyl)-1H-1,2,3-triazol-4-yl)methyl)piperidin-4-yl)phenol], for which the Ki range for both μ and σ1 (dual-binding class) was under 500 nM. As to `Oc1cccc(C2CCN(Cc3cn(Cc4ncccc4F)nn3)CC2)c1` [Example 134, 3-(1-((1-((3-fluoropyridin-2-yl)methyl)-1H-1,2,3-triazol-4-yl)methyl)piperidin-4-yl)phenol], the Ki range for both μ and σ1 (dual-binding class) is under 500 nM.

With `CC(C)S(=O)(=O)Nc1cccc(C2CCN(Cc3cn(Cc4ccc(F)cn4)nn3)CC2)c1` [Example 135, N-(3-(1-((1-((5-fluoropyridin-2-yl)methyl)-1H-1,2,3-triazol-4-yl)methyl)piperidin-4-yl)phenyl)propane-2-sulfonamide], the “μ and σ1 dual binding” value is listed as “++”. As to `Oc1cc(C2CCN(Cc3cn(Cc4ccccn4)nn3)CC2)ccc1F` [Example 136, 2-fluoro-5-(1-((1-(pyridin-2-ylmethyl)-1H-1,2,3-triazol-4-yl)methyl)piperidin-4-yl)phenol], the Ki range for both μ and σ1 (dual-binding class) was under 500 nM.

Turning to `Oc1ccc(F)c(C2CCN(Cc3cn(Cc4ccccn4)nn3)CC2)c1` [Example 137, 4-fluoro-3-(1-((1-(pyridin-2-ylmethyl)-1H-1,2,3-triazol-4-yl)methyl)piperidin-4-yl)phenol], the Ki range for both μ and σ1 (dual-binding class) was under 500 nM. The same measure, in the same setting: the value for `CNS(=O)(=O)c1cccc(C2CCN(Cc3cn(Cc4ccccn4)nn3)CC2)c1` [Example 138, N-methyl-3-(1-((1-(pyridin-2-ylmethyl)-1H-1,2,3-triazol-4-yl)methyl)piperidin-4-yl)benzenesulfonamide] was at least 500 nM. As to `c1ccc(Cn2cc(CN3CCC(c4cccc(-c5ncc[nH]5)c4)CC3)nn2)nc1` [Example 139, 2-((4-((4-(3-(1H-imidazol-2-yl)phenyl)piperidin-1-yl)methyl)-1H-1,2,3-triazol-1-yl)methyl)pyridine], the “μ and σ1 dual binding” value is listed as “++”. In the case of `NS(=O)(=O)c1cccc(C2CCN(Cc3cn(-c4ccccc4)nn3)CC2)c1` [Example 140, 3-(1-((1-phenyl-1H-1,2,3-triazol-4-yl)methyl)piperidin-4-yl)benzenesulfonamide], the Ki range for both μ and σ1 (dual-binding class) is at least 500 nM.

Consider `NS(=O)(=O)c1cccc(C2CCN(Cc3cn(Cc4ccccn4)nn3)CC2)c1` [Example 141, 3-(1-((1-(pyridin-2-ylmethyl)-1H-1,2,3-triazol-4-yl)methyl)piperidin-4-yl)benzenesulfonamide], for which the Ki range for both μ and σ1 (dual-binding class) was at least 500 nM. With `Oc1cccc(C2CCN(Cc3cn(-c4ccccc4F)nn3)CC2)c1` [Example 142, 3-(1-((1-(2-fluorophenyl)-1H-1,2,3-triazol-4-yl)methyl)piperidin-4-yl)phenol], the Ki range for both μ and σ1 (dual-binding class) is under 100 nM. `Oc1cccc(C2CCN(Cc3cn(-c4ccc(F)cn4)nn3)CC2)c1` [Example 143, 3-(1-((1-(5-fluoropyridin-2-yl)-1H-1,2,3-triazol-4-yl)methyl)piperidin-4-yl)phenol]: the Ki range for both μ and σ1 (dual-binding class) was under 100 nM. `Oc1cccc(C2CCN(Cc3cn(Cc4ncccc4Cl)nn3)CC2)c1` [Example 144, 3-(1-((1-((3-chloropyridin-2-yl)methyl)-1H-1,2,3-triazol-4-yl)methyl)piperidin-4-yl)phenol]: the Ki range for both μ and σ1 (dual-binding class) was under 500 nM. On the same count and under the same terms, with `Oc1cccc(C2CCN(Cc3cn(Cc4cccnc4)nn3)CC2)c1` [Example 145, 3-(1-((1-(pyridin-3-ylmethyl)-1H-1,2,3-triazol-4-yl)methyl)piperidin-4-yl)phenol] the figure was under 500 nM. Same read-out and setting: the value for `Oc1cccc(C2CCN(Cc3cn(-c4c(F)cccc4F)nn3)CC2)c1` [Example 146, 3-(1-((1-(2,6-difluorophenyl)-1H-1,2,3-triazol-4-yl)methyl)piperidin-4-yl)phenol] was under 100 nM; that for `Oc1cccc(C2CCN(Cc3cn(-c4ccc(F)c(F)c4)nn3)CC2)c1` [Example 147, 3-(1-((1-(3,4-difluorophenyl)-1H-1,2,3-triazol-4-yl)methyl)piperidin-4-yl)phenol] was under 100 nM. Same read-out and setting: the value for `Oc1cccc(C2CCN(Cc3cn(-c4ccc(Cl)cn4)nn3)CC2)c1` [Example 148, 3-(1-((1-(5-chloropyridin-2-yl)-1H-1,2,3-triazol-4-yl)methyl)piperidin-4-yl)phenol] was under 100 nM; that for `Oc1cccc(C2CCN(Cc3cn(Cc4ncccc4C(F)(F)F)nn3)CC2)c1` [Example 151, 3-(1-((1-((3-(trifluoromethyl)pyridin-2-yl)methyl)-1H-1,2,3-triazol-4-yl)methyl)piperidin-4-yl)phenol] was under 500 nM. Consider `Oc1cccc(C2CCN(Cc3cn(Cc4ccc(C(F)(F)F)cn4)nn3)CC2)c1` [Example 152], for which the Ki range for both μ and σ1 (dual-binding class) was under 100 nM. On to `Oc1cccc(C2CCN(Cc3cn(Cc4ccc(Cl)cn4)nn3)CC2)c1` [Example 153, 3-(1-((1-((5-chloropyridin-2-yl)methyl)-1H-1,2,3-triazol-4-yl)methyl)piperidin-4-yl)phenol], for which the Ki range for both μ and σ1 (dual-binding class) is under 100 nM. On the same count and under the same terms, with `Oc1cccc(C2CCN(Cc3cn(-c4ncccc4F)nn3)CC2)c1` [Example 154, 3-(1-((1-(3-fluoropyridin-2-yl)-1H-1,2,3-triazol-4-yl)methyl)piperidin-4-yl)phenol] the figure was under 500 nM.

Consider `Oc1cccc(C2CCN(Cc3cn(-c4ccc(F)cc4F)nn3)CC2)c1` [Example 155, 3-(1-((1-(2,4-difluorophenyl)-1H-1,2,3-triazol-4-yl)methyl)piperidin-4-yl)phenol], for which the Ki range for both μ and σ1 (dual-binding class) is under 100 nM. For `Oc1cccc(C2CCN(Cc3cn(Cc4ncccc4O)nn3)CC2)c1` [Example 156, 2-((4-((4-(3-hydroxyphenyl)piperidin-1-yl)methyl)-1H-1,2,3-triazol-1-yl)methyl)pyridin-3-ol], the “μ and σ1 dual binding” value is on record as “++”. In the case of `Oc1cccc(C2CCN(Cc3cn(-c4cc(C(F)(F)F)ccn4)nn3)CC2)c1` [Example 157, 3-(1-((1-(4-(trifluoromethyl)pyridin-2-yl)-1H-1,2,3-triazol-4-yl)methyl)piperidin-4-yl)phenol], the Ki range for both μ and σ1 (dual-binding class) was under 500 nM.

With `COc1cccnc1Cn1cc(CN2CCC(c3cccc(O)c3)CC2)nn1` [Example 158, 3-(1-((1-((3-methoxypyridin-2-yl)methyl)-1H-1,2,3-triazol-4-yl)methyl)piperidin-4-yl)phenol], the “μ and σ1 dual binding” value is given as “++”. `Oc1ccc(Cn2cc(CN3CCC(c4cccc(O)c4)CC3)nn2)nc1` [Example 159, 6-((4-((4-(3-hydroxyphenyl)piperidin-1-yl)methyl)-1H-1,2,3-triazol-1-yl)methyl)pyridin-3-ol]: the Ki range for both μ and σ1 (dual-binding class) is at least 500 nM. Take `Oc1cccc(C2CCN(Cc3cn(Cc4cc(C(F)(F)F)ccn4)nn3)CC2)c1` [Example 160, 3-(1-((1-((4-(trifluoromethyl)pyridin-2-yl)methyl)-1H-1,2,3-triazol-4-yl)methyl)piperidin-4-yl)phenol]: the Ki range for both μ and σ1 (dual-binding class) is under 100 nM. Turning to `Oc1cccc(C2CCN(Cc3cn(-c4ncccc4Cl)nn3)CC2)c1` [Example 161, 3-(1-((1-(3-chloropyridin-2-yl)-1H-1,2,3-triazol-4-yl)methyl)piperidin-4-yl)phenol], the Ki range for both μ and σ1 (dual-binding class) was under 500 nM. Still for that read-out and setting: with `Oc1cccc(C2CCN(CCc3cn(-c4ccccc4)nn3)CC2)c1` [Example 162, 3-(1-(2-(1-phenyl-1H-1,2,3-triazol-4-yl)ethyl)piperidin-4-yl)phenol] the figure was under 100 nM.
